From patent US20260137703A1, “2-AMINO-PYRIDO[2,3-D]PYRIMIDIN-7(8H)-ONE AND 7-AMINO-1-PYRIMIDO[4,5-D]PYRIMIDIN-2(1 H)-ONE DERIVATIVES AS EGFR INHIBITORS FOR THE TREATMENT OF CANCER” (Cancer Research Technology Limited, priority 2022, published 2026)
pIC50: −log10 of the molar value.

Columns and labels:
[1] = target: T1, Phospho-EGFR (Tyr1068) in H1975 cells (Homo sapiens, UniProt P00533, L858R/T790M); assay: HTRF pEGFR/total EGFR in H1975 cells; format: cell-based; settings: ratio pEGFR/total EGFR, compound 3 hours
T1 construct: host or cells: H1975
T1 sequence (P00533 25-1210 T790M/L858R): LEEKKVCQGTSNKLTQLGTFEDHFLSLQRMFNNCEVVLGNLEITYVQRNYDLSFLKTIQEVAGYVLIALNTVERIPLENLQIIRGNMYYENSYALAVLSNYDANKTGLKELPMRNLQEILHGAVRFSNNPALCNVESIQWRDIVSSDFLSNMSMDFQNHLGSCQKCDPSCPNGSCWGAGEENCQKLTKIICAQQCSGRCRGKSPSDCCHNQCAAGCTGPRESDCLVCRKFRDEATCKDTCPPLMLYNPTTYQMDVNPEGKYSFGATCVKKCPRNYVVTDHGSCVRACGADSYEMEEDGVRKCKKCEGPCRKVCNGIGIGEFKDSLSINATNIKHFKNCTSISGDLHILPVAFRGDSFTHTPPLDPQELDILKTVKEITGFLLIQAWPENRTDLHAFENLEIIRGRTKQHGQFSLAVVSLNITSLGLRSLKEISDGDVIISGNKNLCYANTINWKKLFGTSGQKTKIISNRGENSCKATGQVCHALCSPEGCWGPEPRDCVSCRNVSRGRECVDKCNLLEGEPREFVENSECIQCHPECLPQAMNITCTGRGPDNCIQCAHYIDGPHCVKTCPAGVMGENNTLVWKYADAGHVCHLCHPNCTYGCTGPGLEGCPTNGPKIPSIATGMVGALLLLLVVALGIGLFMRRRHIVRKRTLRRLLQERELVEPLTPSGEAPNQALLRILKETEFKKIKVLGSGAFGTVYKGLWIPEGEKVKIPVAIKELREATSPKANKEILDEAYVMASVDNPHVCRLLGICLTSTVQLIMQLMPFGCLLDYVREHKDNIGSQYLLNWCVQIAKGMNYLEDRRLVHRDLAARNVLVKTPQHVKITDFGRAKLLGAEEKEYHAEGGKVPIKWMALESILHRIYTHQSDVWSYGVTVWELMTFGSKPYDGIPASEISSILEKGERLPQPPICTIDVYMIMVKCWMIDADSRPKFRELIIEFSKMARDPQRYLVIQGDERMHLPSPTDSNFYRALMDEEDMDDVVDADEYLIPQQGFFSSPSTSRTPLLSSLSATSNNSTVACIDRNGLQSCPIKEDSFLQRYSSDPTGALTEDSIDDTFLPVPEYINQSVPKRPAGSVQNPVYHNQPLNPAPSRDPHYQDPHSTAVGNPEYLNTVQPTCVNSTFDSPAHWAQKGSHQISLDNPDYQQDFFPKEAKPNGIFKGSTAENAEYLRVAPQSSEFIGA
Summary of the method: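 Readout is the phospho-EGFR (Tyr1068) to total EGFR HTRF ratio, expressed relative to 0 μM control. Adhered H1975 cells were exposed to compound for 3 hours at 0.1% DMSO, duplicate wells, then lysed for 30 min at room temperature before two-wavelength fluorescence reading.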

[2] = target: T2, Phospho-EGFR (Tyr1068) in H1975 C797S cells (CRISPR-edited EGFR C797S) (Homo sapiens, UniProt P00533, C797S/L858R/T790M); assay: HTRF pEGFR/total EGFR in H1975 C797S cells; format: cell-based; settings: ratio pEGFR/total EGFR, compound 3 hours
T2 construct: host or cells: H1975 C797S (CRISPR-edited)
T2 sequence (P00533 25-1210 T790M/C797S/L858R): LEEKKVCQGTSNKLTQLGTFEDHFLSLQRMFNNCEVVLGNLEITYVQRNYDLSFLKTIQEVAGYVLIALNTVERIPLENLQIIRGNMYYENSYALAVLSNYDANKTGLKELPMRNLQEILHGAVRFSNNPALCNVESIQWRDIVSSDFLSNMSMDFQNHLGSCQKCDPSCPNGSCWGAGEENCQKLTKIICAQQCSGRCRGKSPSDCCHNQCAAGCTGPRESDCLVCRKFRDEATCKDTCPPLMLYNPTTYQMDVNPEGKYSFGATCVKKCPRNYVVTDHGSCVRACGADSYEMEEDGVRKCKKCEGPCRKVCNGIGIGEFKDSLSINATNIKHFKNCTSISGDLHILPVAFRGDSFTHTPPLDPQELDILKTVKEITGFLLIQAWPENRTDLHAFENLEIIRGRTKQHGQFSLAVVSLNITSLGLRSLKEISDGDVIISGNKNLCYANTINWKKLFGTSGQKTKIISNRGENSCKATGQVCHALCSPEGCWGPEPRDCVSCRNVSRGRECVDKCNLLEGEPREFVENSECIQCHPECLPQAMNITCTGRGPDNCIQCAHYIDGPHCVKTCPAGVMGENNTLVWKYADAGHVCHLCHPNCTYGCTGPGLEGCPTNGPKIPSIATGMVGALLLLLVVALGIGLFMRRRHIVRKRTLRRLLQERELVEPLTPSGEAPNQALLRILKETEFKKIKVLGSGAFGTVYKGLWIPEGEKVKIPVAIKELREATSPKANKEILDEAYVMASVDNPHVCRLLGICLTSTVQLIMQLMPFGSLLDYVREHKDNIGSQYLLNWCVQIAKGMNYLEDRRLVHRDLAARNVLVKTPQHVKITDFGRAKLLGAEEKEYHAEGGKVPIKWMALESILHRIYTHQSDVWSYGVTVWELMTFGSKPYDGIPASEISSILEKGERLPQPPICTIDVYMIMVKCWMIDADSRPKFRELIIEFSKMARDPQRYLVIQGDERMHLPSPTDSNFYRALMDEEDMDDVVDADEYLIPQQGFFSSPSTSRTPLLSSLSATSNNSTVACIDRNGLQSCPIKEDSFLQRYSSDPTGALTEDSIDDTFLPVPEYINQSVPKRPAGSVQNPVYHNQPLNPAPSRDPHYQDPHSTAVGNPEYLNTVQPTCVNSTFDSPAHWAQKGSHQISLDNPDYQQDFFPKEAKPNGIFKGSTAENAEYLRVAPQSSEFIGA
Summary of the method: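 Readout is the HTRF-measured Tyr1068 phospho-EGFR to total EGFR ratio, normalised to the 0 μM control as percent. Preceding this, CRISPR-edited H1975 C797S cells, plated 24 h earlier, were exposed 3 h to duplicate compound doses in medium with 0.1% DMSO, then lysed on a shaker.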

[3] = target: T3, Phospho-EGFR (Tyr1068) in A431 cells (Homo sapiens, UniProt P00533); assay: HTRF pEGFR/total EGFR in A431 cells with EGF stimulation; format: cell-based; settings: ratio pEGFR/total EGFR, compound 2.5 hours then 100 ng/ml EGF 30 mins
T3 construct: endogenous in cells; host or cells: A431
T3 sequence (P00533 25-1210): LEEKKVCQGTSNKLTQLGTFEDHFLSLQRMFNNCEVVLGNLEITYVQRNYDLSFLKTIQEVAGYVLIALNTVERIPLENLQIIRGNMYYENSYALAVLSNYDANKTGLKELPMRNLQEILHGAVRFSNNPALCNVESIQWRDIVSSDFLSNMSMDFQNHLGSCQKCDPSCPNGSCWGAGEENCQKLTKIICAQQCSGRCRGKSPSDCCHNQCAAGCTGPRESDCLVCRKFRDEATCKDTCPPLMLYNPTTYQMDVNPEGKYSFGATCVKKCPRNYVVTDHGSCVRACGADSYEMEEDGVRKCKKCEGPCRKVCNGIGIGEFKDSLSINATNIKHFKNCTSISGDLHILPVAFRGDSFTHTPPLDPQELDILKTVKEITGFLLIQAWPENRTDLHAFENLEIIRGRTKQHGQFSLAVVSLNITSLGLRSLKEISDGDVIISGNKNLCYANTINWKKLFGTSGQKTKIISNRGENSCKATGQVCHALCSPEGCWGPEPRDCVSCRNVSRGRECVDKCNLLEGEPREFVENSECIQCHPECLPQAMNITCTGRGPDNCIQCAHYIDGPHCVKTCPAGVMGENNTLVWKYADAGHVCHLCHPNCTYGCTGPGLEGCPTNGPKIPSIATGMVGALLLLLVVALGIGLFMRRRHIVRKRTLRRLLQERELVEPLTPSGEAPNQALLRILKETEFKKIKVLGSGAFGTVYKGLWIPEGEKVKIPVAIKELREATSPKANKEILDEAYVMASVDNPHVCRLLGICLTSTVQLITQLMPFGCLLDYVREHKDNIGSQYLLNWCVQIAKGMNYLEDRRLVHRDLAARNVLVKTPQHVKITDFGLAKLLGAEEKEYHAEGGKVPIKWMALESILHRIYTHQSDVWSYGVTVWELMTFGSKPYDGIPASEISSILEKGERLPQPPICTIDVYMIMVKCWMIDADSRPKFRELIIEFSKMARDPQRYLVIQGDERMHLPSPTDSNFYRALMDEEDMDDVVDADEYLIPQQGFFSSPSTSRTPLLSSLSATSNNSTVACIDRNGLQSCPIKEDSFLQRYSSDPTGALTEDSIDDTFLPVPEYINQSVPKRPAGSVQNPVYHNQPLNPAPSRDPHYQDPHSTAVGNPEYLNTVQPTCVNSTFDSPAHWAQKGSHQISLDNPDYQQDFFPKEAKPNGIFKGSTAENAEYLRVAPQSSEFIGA
Summary of the method: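 Values are pEGFR(Tyr1068)/total EGFR HTRF ratios (665/620 nm) given as percent of the 0 μM control. Adhered A431 cells (20,000 per well, 24 h) had 2.5 h compound pretreatment in 0.1% DMSO, then 30 min of 100 ng/ml EGF before lysis.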

[4] = target: CtermHisTag-mEGFR Wild type (Homo sapiens, UniProt P00533); assay: biochemical
Chain of CtermHisTag-mEGFR Wild type (P00533 whole entry): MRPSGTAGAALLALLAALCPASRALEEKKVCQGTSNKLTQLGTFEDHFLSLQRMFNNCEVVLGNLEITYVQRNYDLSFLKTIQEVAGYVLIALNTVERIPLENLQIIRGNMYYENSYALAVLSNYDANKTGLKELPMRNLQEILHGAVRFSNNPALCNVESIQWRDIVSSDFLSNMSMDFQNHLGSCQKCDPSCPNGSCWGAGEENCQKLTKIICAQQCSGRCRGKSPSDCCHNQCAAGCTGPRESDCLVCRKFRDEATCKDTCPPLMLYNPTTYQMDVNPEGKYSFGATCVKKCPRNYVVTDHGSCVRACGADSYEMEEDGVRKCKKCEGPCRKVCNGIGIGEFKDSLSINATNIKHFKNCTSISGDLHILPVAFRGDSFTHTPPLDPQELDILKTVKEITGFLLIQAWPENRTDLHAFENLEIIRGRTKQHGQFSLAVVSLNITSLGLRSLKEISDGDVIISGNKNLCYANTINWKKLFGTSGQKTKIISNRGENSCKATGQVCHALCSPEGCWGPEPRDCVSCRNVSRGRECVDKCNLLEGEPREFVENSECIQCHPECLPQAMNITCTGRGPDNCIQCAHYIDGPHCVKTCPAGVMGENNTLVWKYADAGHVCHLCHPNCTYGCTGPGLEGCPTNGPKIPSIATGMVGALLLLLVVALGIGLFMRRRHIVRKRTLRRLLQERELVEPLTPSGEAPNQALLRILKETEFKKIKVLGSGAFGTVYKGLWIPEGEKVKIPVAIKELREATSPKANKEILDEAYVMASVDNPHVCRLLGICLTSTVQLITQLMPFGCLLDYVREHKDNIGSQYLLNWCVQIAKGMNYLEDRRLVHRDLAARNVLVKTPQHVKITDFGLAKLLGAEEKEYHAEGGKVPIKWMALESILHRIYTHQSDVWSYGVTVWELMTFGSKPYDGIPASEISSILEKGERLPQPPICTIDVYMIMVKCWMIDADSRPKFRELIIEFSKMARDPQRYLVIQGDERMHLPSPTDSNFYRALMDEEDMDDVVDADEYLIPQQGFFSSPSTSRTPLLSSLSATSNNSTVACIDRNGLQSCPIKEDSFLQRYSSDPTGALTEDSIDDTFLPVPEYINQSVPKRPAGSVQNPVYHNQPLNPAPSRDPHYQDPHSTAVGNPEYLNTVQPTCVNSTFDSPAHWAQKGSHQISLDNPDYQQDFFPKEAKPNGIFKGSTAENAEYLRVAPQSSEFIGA

Row | SMILES | pIC50 [1] | pIC50 [2] | pIC50 [3] | pIC50 [4]
1 | C=Cc1cc(=O)n(-c2ccc(OC)cc2OC)c2nc(Nc3ccc(N(C)CCN(C)C)cc3)ncc12 [Example 155, 8-(2,4-dimethoxyphenyl)-2-[(4-{[2-(dimethylamino)ethyl](methyl)amino}phenyl)amino]-5-ethenylpyrido[2,3-d]pyrimidin-7-one] | < 5.52 | < 5.52 | < 5.52 | 5.00 to 6.00
2 | C=Cc1cc(=O)n(-c2cccc(OC)c2)c2nc(Nc3ccccc3OC)ncc12 [Example 156, 8-(3-Methoxyphenyl)-2-((2-methoxyphenyl)amino)-5-vinylpyrido[2,3-d]pyrimidin-7(8H)-one] | < 5.52 | < 5.52 | < 5.52 | < 5.00
3 | C=Cc1cc(=O)n(-c2ccc(OC)cc2)c2nc(Nc3ccccc3OC)ncc12 [Example 157, 8-(4-Methoxyphenyl)-2-((2-methoxyphenyl)amino)-5-vinylpyrido[2,3-d]pyrimidin-7(8H)-one] | < 5.52 | < 5.52 | < 5.52 | < 5.00
4 | C=Cc1c(-c2ccccc2Cl)c(=O)n(C)c2nc(Nc3ccc(OCCN(C)C)cc3)ncc12 [Example 172, 6-(2-chlorophenyl)-2-({4-[2-(dimethylamino)ethoxy]phenyl}amino)-5-ethenyl-8-methylpyrido[2,3-d]pyrimidin-7-one] | < 5.52 | < 5.52 | < 5.52 | < 5.00
5 | C#Cc1cc(=O)n(C2CCCC2)c2nc(Nc3cccc(CN4CC(CS(C)(=O)=O)C4)c3)ncc12 [Example 181] | < 5.52 | < 5.52 | < 5.52 | < 5.00
6 | C#Cc1cc(=O)n(C2CCCC2)c2nc(Nc3cccc(CN4CCC(CS(C)(=O)=O)C4)c3)ncc12 (stereo not shown) [Example 182] | < 5.52 | < 5.52 | < 5.52 | < 5.00
7 | C#Cc1cc(=O)n(C2CCCC2)c2nc(Nc3cccc(CN4CCC(CS(C)(=O)=O)CC4)c3)ncc12 [Example 183] | < 5.52 | < 5.52 | < 5.52 | < 5.00
8 | C#Cc1cc(=O)n2c3nc(ncc13)Nc1cccc(c1)OCCC2 [Example 186, 1^5-ethynyl-1^7,1^8-dihydro-4-oxa-2-aza-1(2,8)-pyrido[2,3-d]pyrimidina-3(1,3)-benzenacycloheptaphan-1^7-one] | < 5.52 | < 5.52 | < 5.52 | < 5.00
9 | C#Cc1cc(=O)n2c3nc(ncc13)Nc1cccc(c1)OC/C=C\C2 [Example 187, (Z)-1^5-ethynyl-1^7,1^8-dihydro-4-oxa-2-aza-1(2,8)-pyrido[2,3-d]pyrimidina-3(1,3)-benzenacyclooctaphan-6-en-1^7-one] | > 6.30 | 6.00 to 6.30 | < 5.52 | 5.00 to 6.00
10 | C#Cc1c(C)c(=O)n2c3nc(ncc13)Nc1cccc(c1)OC/C=C\C2 [Example 190, (Z)-1^5-ethynyl-1^6-methyl-1^7,1^8-dihydro-4-oxa-2-aza-1(2,8)-pyrido[2,3-d]pyrimidina-3(1,3)-benzenacyclooctaphan-6-en-1^7-one] | 5.52 to 6.00 | 5.52 to 6.00 | < 5.52 | < 5.00
11 | C#Cc1cc(=O)n2c3nc(ncc13)Nc1cccc(c1)OC[C@H]1CC[C@H](C1)C2 [Example 192, (5^1R,5^3S)-3^5-ethynyl-3^7,3^8-dihydro-7-oxa-2-aza-3(2,8)-pyrido[2,3-d]pyrimidina-1(1,3)-benzena-5(1,3)-cyclopentanacycloheptaphan-3^7-one] | 6.00 to 6.30 | 6.00 to 6.30 | < 5.52 | < 5.00

The next lines start with the values.

Row | pIC50 [1] | pIC50 [2] | pIC50 [3] | pIC50 [4] | SMILES
12 | < 5.52 | 5.52 to 6.00 | < 5.52 | 5.00 to 6.00 | C#Cc1c(-c2cccs2)c(=O)n(C)c2nc(Nc3ccc(N4CCN(C)CC4)cc3)ncc12 [Example 150, 5-ethynyl-8-methyl-2-{[4-(4-methylpiperazin-1-yl)phenyl]amino}-6-(thiophen-2-yl)pyrido[2,3-d]pyrimidin-7-one]
13 | 6.00 to 6.30 | 6.00 to 6.30 | 5.52 to 6.00 | 5.00 to 6.00 | C#Cc1c(C)c(=O)n(-c2ccccc2)c2nc(Nc3ccc(N4CCN(C)CC4)cc3)ncc12 [Example 151, 5-Ethynyl-6-methyl-2-{[4-(4-methylpiperazin-1-yl)phenyl]amino}-8-phenylpyrido[2,3-d]pyrimidin-7-one]
14 | < 5.52 | < 5.52 | < 5.52 | < 5.00 | C=Cc1c(-c2ccccc2Cl)c(=O)n(C)c2nc(Nc3ccc(N4CCN(C)CC4)cc3OC)ncc12 [Example 170, 6-(2-chlorophenyl)-5-ethenyl-2-{[2-methoxy-4-(4-methylpiperazin-1-yl)phenyl]amino}-8-methylpyrido[2,3-d]pyrimidin-7-one]
15 | < 5.52 | < 5.52 | < 5.52 | < 5.00 | C#Cc1c(C)c(=O)n(Cc2cnoc2)c2nc(Nc3ccc(N4CCN(C)CC4)cc3)ncc12 [Example 175, 5-Ethynyl-6-methyl-2-{[4-(4-methylpiperazin-1-yl)phenyl]aminol}-8-(1,2-oxazol-4-ylmethyl)pyrido[2,3-d]pyrimidin-7-one]
16 | 5.52 to 6.00 | 5.52 to 6.00 | < 5.52 | > 6.00 | C#Cc1c(C)c(=O)n(Cc2cnco2)c2nc(Nc3ccc(N4CCN(C)CC4)cc3)ncc12 [Example 176, 5-Ethynyl-6-methvl-2-{[4-(4-methylpiperazin-1-yl)phenyl]aminol}-8-(1,3-oxazol-5-ylmethyl)pyrido[2,3-d]pyrimidin-7-one]
17 | < 5.52 | < 5.52 | < 5.52 | 5.00 to 6.00 | C#Cc1c(C)c(=O)n(Cc2ncc[nH]2)c2nc(Nc3ccc(N4CCN(C)CC4)cc3)ncc12 [Example 177, 5-Ethynyl-8-(1H-imidazol-2-ylmethyl)-6-methyl-2-{[4-(4-methylpiperazin-1-yl)phenyl]amino}pyrido[2,3-d]pyrimidin-7-one]
18 | 6.00 to 6.30 | 6.00 to 6.30 | < 5.52 | > 6.00 | C#Cc1c(C)c(=O)n(Cc2ccccn2)c2nc(Nc3ccc(N4CCN(C)CC4)cc3)ncc12 [Example 178, 5-Ethynyl-6-methyl-2-{[4-(4-methylpiperazin-1-yl)phenyl]amino}-8-(pyridin-2-ylmethyl)pyrido[2,3-d]pyrimidin-7-one]
19 | 5.52 to 6.00 | 5.52 to 6.00 | < 5.52 | 5.00 to 6.00 | C#Cc1c(C)c(=O)n(Cc2ccncc2)c2nc(Nc3ccc(N4CCN(C)CC4)cc3)ncc12 [Example 179, 5-Ethynyl-6-methyl-2-{[4-(4-methylpiperazin-1-yl)phenyl]amino}-8-(pyridin-4-ylmethyl)pyrido[2,3-d]pyrimidin-7-one]
20 | 5.52 to 6.00 | 5.52 to 6.00 | < 5.52 | 5.00 to 6.00 | C#Cc1c(C)c(=O)n(Cc2cnn(C)c2)c2nc(Nc3ccc(N4CCN(C)CC4)cc3)ncc12 [Example 180, 5-Ethynyl-6-methyl-2-{[4-(4-methylpiperazin-1-yl)phenyl]aminol}-8-[(1-methylpyrazol-4-yl)methyl]pyrido[2,3-d]pyrimidin-7-one]
21 | < 5.52 | < 5.52 | < 5.52 | 5.00 to 6.00 | C#Cc1cc(=O)n(C2CCCC2)c2nc(Nc3cccc4c3CN(C)C4)ncc12 [Example 184, 8-Cyclopentyl-5-ethynyl-2-[(2-methvl-1,3-dihydroisoindol-4-yl)amino]pyrido[2,3-d]pyrimidin-7-one]
22 | < 5.52 | < 5.52 | < 5.52 | < 5.00 | C#Cc1cc(=O)n(C2CCCC2)c2nc(Nc3cccc4c3CCN(C)C4)ncc12 [Example 185, 8-Cyclopentyl-5-ethynyl-2-[(2-methyl-3,4-dihydro-1H-isoquinolin-5-yl)amino]pyrido[2,3-d]pyrimidin-7-one]
23 | > 6.30 | > 6.30 | 6.00 to 6.30 | > 6.00 | C#Cc1cc(=O)n2c3nc(ncc13)Nc1ccc(N3CCN(C)CC3)c(c1)OC/C=C\C2 [Example 188, (Z)-1^5-ethynyl-3^4-(4-methylpiperazin-1-yl)-1^7,1^8-dihydro-4-oxa-2-aza-1(2,8)-pyrido[2,3-d]pyrimidina-3(1,3)-benzenacyclooctaphan-6-en-1^7-one]
24 | > 6.30 | > 6.30 | 6.00 to 6.30 | > 6.00 | C#Cc1cc(=O)n2c3nc(ncc13)Nc1ccc(N3CCN(C)CC3)c(c1)OCCCC2 [Example 189, 1^5-ethynyl-3^4-(4-methylpiperazin-1-yl)-1^7,1^8-dihydro-4-oxa-2-aza-1(2,8)-pyrido[2,3-d]pyrimidina-3(1,3)-benzenacyclooctaphan-1^7-one]
25 | < 5.52 | < 5.52 | < 5.52 | 5.00 to 6.00 | C#Cc1c(C)c(=O)n2c3nc(ncc13)Nc1cccc(c1)OCCCC2 [Example 191, 1^5-ethynyl-1^6-methyl-1^7,1^8-dihydro-4-oxa-2-aza-1(2,8)-pyrido[2,3-d]pyrimidina-3(1,3)-benzenacyclooctaphan-1^7-one]
